Experiments:
Carbonic anhydrase 9 = Carbonic anhydrase 9 (Homo sapiens, UniProt Q16790)
Description: Inhibition of human transmembrane carbonic anhydrase 9 by stopped-flow CO2 hydration assay

Carbonic anhydrase 12 = Carbonic anhydrase 12 (Homo sapiens, UniProt O43570)
Description: Inhibition of human transmembrane carbonic anhydrase 12 by stopped-flow CO2 hydration assay

Carbonic anhydrase 1 = Carbonic anhydrase 1 (Homo sapiens, UniProt P00915)
Description: Inhibition of human cytosolic carbonic anhydrase 1 by stopped-flow CO2 hydration assay

Carbonic anhydrase 2 = Carbonic anhydrase 2 (Homo sapiens, UniProt P00918)
Description: Inhibition of human cytosolic carbonic anhydrase 2 by stopped-flow CO2 hydration assay

Carbonic anhydrase 1, sequence (P00915 whole entry): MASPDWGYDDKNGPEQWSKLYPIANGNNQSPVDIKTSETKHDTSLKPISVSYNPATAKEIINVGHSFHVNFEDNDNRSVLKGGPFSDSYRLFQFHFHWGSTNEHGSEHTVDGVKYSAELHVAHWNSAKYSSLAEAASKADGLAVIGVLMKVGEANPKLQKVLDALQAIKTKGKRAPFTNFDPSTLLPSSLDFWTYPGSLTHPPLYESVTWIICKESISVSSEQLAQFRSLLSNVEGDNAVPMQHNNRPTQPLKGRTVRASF
Carbonic anhydrase 12, sequence (O43570 whole entry): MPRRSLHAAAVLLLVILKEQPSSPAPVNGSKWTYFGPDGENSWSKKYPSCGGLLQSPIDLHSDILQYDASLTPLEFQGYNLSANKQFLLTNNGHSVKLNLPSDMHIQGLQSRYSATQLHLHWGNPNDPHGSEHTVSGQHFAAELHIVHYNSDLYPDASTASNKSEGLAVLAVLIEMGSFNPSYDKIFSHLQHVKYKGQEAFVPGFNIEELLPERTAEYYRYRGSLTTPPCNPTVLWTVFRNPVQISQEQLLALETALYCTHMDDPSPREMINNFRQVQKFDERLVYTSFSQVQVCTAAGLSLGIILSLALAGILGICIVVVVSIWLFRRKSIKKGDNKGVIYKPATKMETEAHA

Compound | Ki (Carbonic anhydrase 9) | Ki (Carbonic anhydrase 12) | Ki (Carbonic anhydrase 1) | Ki (Carbonic anhydrase 2)
NS(=O)(=O)c1ccc(N2C(=O)c3ccc([N+](=O)[O-])cc3C2=O)cc1 | 8.65 µM | – | – | –
NS(=O)(=O)c1cccc(N2C(=O)c3cccc([N+](=O)[O-])c3C2=O)c1 | 8.35 µM | – | – | –
NS(=O)(=O)c1ccccc1N1C(=O)c2cccc([N+](=O)[O-])c2C1=O | 7.82 µM | > 10 µM | > 10 µM | –
NS(=O)(=O)c1ccccc1N1C(=O)c2ccc([N+](=O)[O-])cc2C1=O | > 10 µM | – | > 10 µM | > 10 µM
NS(=O)(=O)c1ccc(CCN2C(=O)c3ccc([N+](=O)[O-])cc3C2=O)cc1 | > 10 µM | – | – | –

Continued by falling Ki (Carbonic anhydrase 9), values first:

Ki (Carbonic anhydrase 9) | Ki (Carbonic anhydrase 12) | Ki (Carbonic anhydrase 1) | Ki (Carbonic anhydrase 2) | Compound
10 µM | – | – | – | NS(=O)(=O)c1cccc(N2C(=O)c3ccc([N+](=O)[O-])cc3C2=O)c1
8.84 µM | – | – | – | NS(=O)(=O)c1ccc(CN2C(=O)c3ccc([N+](=O)[O-])cc3C2=O)cc1
0.873 µM | – | – | – | NS(=O)(=O)c1ccc(CN2C(=O)c3cccc([N+](=O)[O-])c3C2=O)cc1
